{"source": "paper PMC8067754", "about": "“Active Transport of Hepatotoxic Pyrrolizidine Alkaloids in HepaRG Cells” (International Journal of Molecular Sciences, 2021)", "key": {"[1]": {"tested_on": "HepaRG cells", "experiment": "Time-dependent PA depletion and PANO formation in cell culture medium of HepaRG cells at 37 °C and 4 °C (LC-MS/MS)", "method": "(§1) In order to measure time-dependent depletion of PA and PANO content in cell culture medium, cells were seeded at a density of 0.2 × 10^6 cells per well in a 6-well plate and cultivated as described in Section 4.2. After four weeks of cultivation, cells were adapted to serum-free medium and medium substituted with insulin, transferrin, selenium (ITS) serum extender (Capricorn Scientific, Ebsdorfergrund, Germany) 48 h prior to PA incubation for optimal LC-MS/MS measurements. […] Samples were taken after 2 h, 4 h, 8 h and 24 h.\n(§2) Briefly, chromatographic separation of PA/PANO analytes was achieved on a 50 × 2.1 mm Kinetex ™ 2.6 μm CoreShell EVO C18 100 Å column protected by a SecurityGuard ™ ULTRA EVO C 18 2.1 mm guard column (both Phenomenex, Aschaffenburg, Germany) at a flow rate of 0.4 mL/min on a Shimadzu high performance liquid chromatography (HPLC) apparatus (LC-20AB, SIL-20AC HT, CTO-20AC, CBM-20A, Duisburg, Germany) coupled to an API4000 triple quadrupole MS (Sciex, Darmstadt, Germany). The following MS parameters were used for measurements in positive electrospray ionisation (ESI+) mode: ionisation voltage 2500 V, nebuliser gas 50 psi, heating gas 50 psi, curtain gas 30 psi, temperature 600 °C, collision gas level 7. The substance specific parameters are summarized in Kaltner et al. 2019 [79]."}, "[2]": {"tested_on": "HepaRG cells", "experiment": "PA and PANO content in cell culture medium of HepaRG cells upon pharmacological transporter inhibition (LC-MS/MS)", "format": "in vitro ADME, human", "method": "In the case of TEA, cells were pre-incubated 24 h prior to PA treatment. The inhibitors were applied anew at PA incubation.\nas §1, §2"}, "[3]": {"molecular_target": "T1, SLC22A1 (Homo sapiens, UniProt O15245)", "T1 construct": "For measuring the uptake of ASP^+ in HepaRG cells incubated with PAs; endogenous in cells; host or cells: differentiated HepaRG cells (human hepatoma)", "T1 sequence (O15245 1-554)": "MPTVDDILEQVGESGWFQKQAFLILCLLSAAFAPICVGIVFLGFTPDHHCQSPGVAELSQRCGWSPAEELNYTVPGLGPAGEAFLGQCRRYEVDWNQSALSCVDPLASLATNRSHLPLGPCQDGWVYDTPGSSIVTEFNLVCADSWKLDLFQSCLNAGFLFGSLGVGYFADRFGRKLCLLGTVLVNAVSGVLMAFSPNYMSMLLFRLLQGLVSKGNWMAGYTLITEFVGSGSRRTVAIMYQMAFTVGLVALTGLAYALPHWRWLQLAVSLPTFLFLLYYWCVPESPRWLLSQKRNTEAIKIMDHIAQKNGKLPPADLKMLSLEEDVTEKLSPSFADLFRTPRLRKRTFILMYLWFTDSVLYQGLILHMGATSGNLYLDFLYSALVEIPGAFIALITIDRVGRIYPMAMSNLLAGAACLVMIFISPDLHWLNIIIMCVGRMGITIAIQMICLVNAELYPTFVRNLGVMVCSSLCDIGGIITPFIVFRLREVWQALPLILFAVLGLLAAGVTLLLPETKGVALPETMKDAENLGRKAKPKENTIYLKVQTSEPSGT", "experiment": "ASP+ (SLC22A1 substrate) uptake measurement in HepaRG cells", "format": "cell-based", "method": "ASP^+ is an organic cationic mitochondrial dye that only fluoresces inside cells so that fluorescence measured in the cell culture medium can be neglected. […] In parallel, cells were incubated with Qu (100 µM) and TEA (3 mM) as mentioned in Section 4.3. After 24 h, cells were incubated with 1 µM ASP^+ in Hanks’ balanced salt solution (HBSS, Sigma-Aldrich, Taufkirchen, Germany) at 37 °C. Fluorescence was measured after 20 min at ASP^+-specific wavelength (λex = 475 nm and λem = 605 nm) on a TecanM200Pro spectrometer (Tecan Group Ltd., Männedorf, Switzerland) according to Ahlin et al., (2008)."}, "[4]": {"tested_on": "HepaRG cells", "experiment": "PA and PANO content in cell culture medium of HepaRG cells upon pharmacological transporter inhibition (LC-MS/MS)", "format": "in vitro ADME, human", "remark": "listed apart in the source"}}, "note": "Where “and” joins values, the source holds several entries; their conditions need not be identical. Identical values can stand only once.", "data": [{"smiles": "C/C=C1/C[C@@H](C)[C@@](C)(O)C(=O)OCC2=CCN3CC[C@@H](OC1=O)[C@@H]23", "note": "[Senecionine, senecionine]", "values": [{"measurement": "reduction of PA content in the supernatant", "setting": "[1]", "result": "highest decline"}, {"measurement": "uptake and toxicity (grading)", "setting": "[1]", "result": "strong"}, {"measurement": "PANO in medium, Mean [%]", "setting": "[1]; human", "result": 0, "unit": "%"}, {"measurement": "PANO in medium, single replicates (repl.)", "setting": "[1]; human", "result": 0, "unit": "%"}, {"measurement": "PA content in medium, single replicates", "setting": "[2]; 8h, no inhibitor, repl. 1-5", "result": 8.726, "unit": "%"}, {"measurement": "PA content in medium, single replicates", "setting": "[2]; 8h, plus Ko143, repl. 1-3", "result": "4.478% and 4.105%"}, {"measurement": "PA in medium, Mean [%]", "setting": "[2]; no inhibitor, 0h", "result": 100, "unit": "%"}, {"measurement": "PA in medium, Mean [%]", "setting": "[2]; no inhibitor, 4h", "result": 25.6172, "unit": "%"}, {"measurement": "PA in medium, single replicates (repl.)", "setting": "[2]; no inhibitor, 4h", "result": "20.2703% and 36.4212% and 41.9726% and 18.235% and 11.1867%"}, {"measurement": "PA in medium, Mean [%]", "setting": "[2]; no inhibitor, 8h", "result": 8.337, "unit": "%"}, {"measurement": "PA in medium, single replicates (repl.)", "setting": "[2]; no inhibitor, 8h", "result": "5.95% and 13.0309% and 15.415% and 3.983% and 3.308%"}, {"measurement": "PA in medium, Mean [%]", "setting": "[2]; no inhibitor, 24h", "result": 0.1453, "unit": "%"}, {"measurement": "PA in medium, single replicates (repl.)", "setting": "[2]; no inhibitor, 24h", "result": "0% (3×) and 0.3901% and 0.3363%"}, {"measurement": "PA in medium, Mean [%]", "setting": "[2]; plus CsA, 0h", "result": 100, "unit": "%"}, {"measurement": "PA in medium, single replicates (repl.)", "setting": "[2]; plus CsA, 0h", "result": 100, "unit": "%"}, {"measurement": "PA in medium, Mean [%]", "setting": "[2]; plus CsA, 4h", "result": 83.5787, "unit": "%"}, {"measurement": "PA in medium, single replicates (repl.)", "setting": "[2]; plus CsA, 4h", "result": "100.41% and 74.0814%"}, {"measurement": "PA in medium, Mean [%]", "setting": "[2]; plus CsA, 8h", "result": 79.3329, "unit": "%"}, {"measurement": "PA in medium, single replicates (repl.)", "setting": "[2]; plus CsA, 8h", "result": "78.1367% and 71.9298%"}, {"measurement": "PA in medium, Mean [%]", "setting": "[2]; plus CsA, 24h", "result": 63.0445, "unit": "%"}, {"measurement": "PA in medium, single replicates (repl.)", "setting": "[2]; plus CsA, 24h", "result": "81.6295% and 67.7648% and 39.7392%"}, {"measurement": "PA in medium, Mean [%]", "setting": "[2]; plus Ko143, 0h", "result": 100, "unit": "%"}, {"measurement": "PA in medium, single replicates (repl.)", "setting": "[2]; plus Ko143, 0h", "result": 100, "unit": "%"}, {"measurement": "PA in medium, Mean [%]", "setting": "[2]; plus Ko143, 4h", "result": 27.3505, "unit": "%"}, {"measurement": "PA in medium, single replicates (repl.)", "setting": "[2]; plus Ko143, 4h", "result": "21.9905% and 15.6142% and 44.4468%"}, {"measurement": "PA in medium, Mean [%]", "setting": "[2]; plus Ko143, 8h", "result": 9.179, "unit": "%"}, {"measurement": "PA in medium, single replicates (repl.)", "setting": "[2]; plus Ko143, 8h", "result": "5.449% and 3.069% and 19.0198%"}, {"measurement": "PA in medium, Mean [%]", "setting": "[2]; plus Ko143, 24h", "result": 0.2576, "unit": "%"}, {"measurement": "PA in medium, single replicates (repl.)", "setting": "[2]; plus Ko143, 24h", "result": "0% (2×) and 0.7727%"}, {"measurement": "PA in medium, Mean [%]", "setting": "[2]; plus MK-571, 0h", "result": 100, "unit": "%"}, {"measurement": "PA in medium, Mean [%]", "setting": "[2]; plus MK-571, 4h", "result": 87.0627, "unit": "%"}, {"measurement": "PA in medium, single replicates (repl.)", "setting": "[2]; plus MK-571, 4h", "result": "81.9366% and 96.8826% and 82.369%"}, {"measurement": "PA in medium, Mean [%]", "setting": "[2]; plus MK-571, 8h", "result": 64.688, "unit": "%"}, {"measurement": "PA in medium, single replicates (repl.)", "setting": "[2]; plus MK-571, 8h", "result": "76.7573% and 68.0778% and 49.229%"}, {"measurement": "PA in medium, Mean [%]", "setting": "[2]; plus MK-571, 24h", "result": 22.3298, "unit": "%"}, {"measurement": "PA in medium, single replicates (repl.)", "setting": "[2]; plus MK-571, 24h", "result": "51.6203% and 9.723% and 5.646%"}, {"measurement": "PA in medium, Mean [%]", "setting": "[2]; plus Qu, 0h", "result": 100, "unit": "%"}, {"measurement": "PA in medium, single replicates (repl.)", "setting": "[2]; plus Qu, 0h", "result": 100, "unit": "%"}, {"measurement": "PA in medium, single replicates (repl.)", "setting": "[2]; plus Qu, 4h", "result": "89.6889% and 96.62%"}, {"measurement": "PA in medium, single replicates (repl.)", "setting": "[2]; plus Qu, 8h", "result": "89.9877% and 75.5125% and 84.2%"}, {"measurement": "PA in medium, single replicates (repl.)", "setting": "[2]; plus Qu, 24h", "result": "67.9609% and 61.3936% and 73.11%"}, {"measurement": "PA in medium, Mean [%]", "setting": "[2]; plus TEA, 0h", "result": 100, "unit": "%"}, {"measurement": "PA in medium, single replicates (repl.)", "setting": "[2]; plus TEA, 0h", "result": 100, "unit": "%"}, {"measurement": "PA in medium, Mean [%]", "setting": "[2]; plus TEA, 4h", "result": 61.4268, "unit": "%"}, {"measurement": "PA in medium, single replicates (repl.)", "setting": "[2]; plus TEA, 4h", "result": "53.1634% and 46.1792% and 84.938%"}, {"measurement": "PA in medium, Mean [%]", "setting": "[2]; plus TEA, 8h", "result": 43.7039, "unit": "%"}, {"measurement": "PA in medium, single replicates (repl.)", "setting": "[2]; plus TEA, 8h", "result": "34.8001% and 27.837%"}, {"measurement": "PA in medium, Mean [%]", "setting": "[2]; plus TEA, 24h", "result": 19.1005, "unit": "%"}, {"measurement": "PA in medium, single replicates (repl.)", "setting": "[2]; plus TEA, 24h", "result": "7.953% and 7.514% and 41.8346%"}, {"measurement": "fluorescence [%], MW [%]", "setting": "[3]; 1 µM, solv ctrl = 100", "result": 90.9095, "unit": "%"}, {"measurement": "fluorescence [%], MW [%]", "setting": "[3]; 10 µM, solv ctrl = 100", "result": 39.1097, "unit": "%"}, {"measurement": "fluorescence [%], MW [%]", "setting": "[3]; 50 µM, solv ctrl = 100", "result": 27.2215, "unit": "%"}, {"measurement": "fluorescence [%], MW [%]", "setting": "[3]; 100 µM, solv ctrl = 100", "result": 21.3927, "unit": "%"}, {"measurement": "fluorescence [%], MW [%]", "setting": "[3]; 250 µM, solv ctrl = 100", "result": 20.0876, "unit": "%"}, {"measurement": "interaction with SLC22A1", "setting": "[3]; HepaRG", "result": "both inhibitors and substrates"}, {"measurement": "minimum concentration inhibiting uptake of the SLC22A1-specific substrate ASP+", "setting": "[3]; HepaRG, 24 h", "result": 10, "unit": "µM"}, {"measurement": "remaining activity at 1 µM", "setting": "[3]; HepaRG, 24 h, 1 µM, solv ctrl = 100, read-out: fluorescence [%], single replicates (repl.)", "result": 82, "unit": "%"}, {"measurement": "PA in medium, single replicates (repl.)", "setting": "[4]; no inhibitor, 0h", "result": 100, "unit": "%"}, {"measurement": "PA in medium, single replicates (repl.)", "setting": "[4]; plus MK-571, 0h", "result": 100, "unit": "%"}]}]}
